The values below are quoted from earlier work in patent US20050182029A1, “Metformin salts of lipophilic acids” (Sonus Pharmaceuticals, Inc., priority 2002, published 2005).

For data set [1] the following is noted: healthy human subjects.

Molecules are shown by their SMILES.

On to `CN(C)C(=N)N=C(N)N` [metformin], for which, under “controlled clinical trials, even at maximum doses”, the “maximum metformin plasma levels (Cmax)” value was no more than 4000 ng/mL. Also, where the note is “usual metformin doses and dosing schedules, reached within 24 to 48 hours”, the steady-state plasma concentration entry is on record as “less than 1 ug/mL”. Also, the colonic absorption result in data set [1] is recorded as “poor colonic absorption”.
